Laboratory results from patent US20090263492A1, “Diagnostic Methods and Genetic Markers for Alzheimer Disease” (priority 2006, published 2009).

What was measured:
Mgat3 transcription = assay: qPCR of Mgat3 transcription in PBMC's from AD patients cultured with Aβ and test agent; type: cell-based, human; parameters: key to Relative Activity: relative ratio of Mgat3 transcription in AD/Mgat3 transcription in control cells: Dash (−) indicates minimal effect; (+) indicates a ratio of 1.0-1.5; (++) indicates a ratio of 1.5-2.0; (+++ to ++++) indicates a ratio of 2.0 and above; (+++ to ++++) indicates a ratio of 2.0 and above; details: curcumins 0.1 uM, PBMC's from AD patients cultured overnight with Aβ, 2 hours incubation, qPCR; for fold induction at 0.1 µM: Homo sapiens, read-out: Relative Activity: relative ratio of Mgat3 transcription in AD/Mgat3 transcription in control cells
Method: RNA Isolation and qPCR. RNA was isolated as above from PBMC's (10 million) of each subject, which were cultured overnight with or without Aβ (2 μg/ml); and cDNA was synthesized using the iSCRIPT cDNA Synthesis Kit. The expression levels of the genes of interest were tested by qPCR on a real-time PCR detector and normalized to the levels of the housekeeping gene 36B4 with the following primers: […]
SYBR Green reactions were carried out with the IQ SYBR Green mix. Reactions were run on a Continuous Fluorescence detector and analyzed. The relative quantities of the gene tested per sample were calculated against 36B4 using the ΔΔC(T) formula as previously described. The results are expressed as log [MGAT (or TLR) RNA (with Aβ)/MGAT (or TLR) RNA (without Aβ)] for each specimen. For evaluation of curcumins or curcumin analogs the above assay was used. Curcumins (0.1 uM) were added to PBMC's from AD patients cultured overnight with ±Aβ as above. After 2 hours of incubation with the curcumin or analog, RNA was isolated and cDNA was synthesized as above. The expression levels of Mgat3 or TLR transcription was quantified and normalized to the levels of housekeeping genes and compared to cells treated with curcumin or analogs with or without Aβ vs. untreated cells. The amount of Mgat3 (or TLR) RNA with Aβ and test agent/Mgat3 (or TLR) RNA withal alone)] for each cell preparation in the presence of test agent was determined. The ratio was used to determine the potency of the agent tested. Potent compounds had elevated ratios (>1.5) and were used to rank the relative activity of each test agent (Table 2).
Curcumins. […] Crude natural product derived materials (i.e., curcuminoids) enhance phagocytosis of Aβ by macrophages from AD patients in approximately 50% of the cases examined. […] The material was purified to near homogeneity and identified by LCMS as bisdesmethoxycurcumin on the basis of its molecular ion and fragmentation pattern. To verify the biological activity of this minor constituent, bisdesmethoxycurcumin was chemically synthesized and tested in the phagocytosis and transcription assays described above (see Example 4). Compared with curcumin, both the bisdesmethoxycurcumin material isolated by chromatography and the chemically synthesized bisdesmethoxycurcumin material optimally stimulated phagocytosis at 0.1 μM. To determine whether functional improvement would be accompanied by biochemical changes, we tested transcriptional up-regulation of MGA T3 and TLR's in PBMC's from AD patients and controls in the presence of Aβ with bisdesmethoxycurcumin (0.1 μM) in comparison to Aβ alone. […] Thus, curcumins (0.1 uM) were added to PBMC's from AD patients cultured overnight with Aβ as above. After 2 hours of incubation, RNA was isolated and cDNA was synthesized. The expression levels of Mgat3 or TLR transcription was quantified and normalized to the levels of housekeeping genes and compared to cells treated with curcumin or analogs without Aβ. The amount of Mgat3 (or TLR) RNA with test agent and Aβ)/Mgat3 (or TLR) RNA (with Aβ alone)] for each cell preparation in the presence of test agent was determined. The ratio was used to determine the potency of the agent tested. Potent compounds had elevated ratios (>1.5) and were used to rank the relative activity (Table 2).
Mgat3 and TLR transcription in cells from AD and control patients. We tested by qPCR Mgat3 and/0or TLR transcription in cells from AD patients and compared the results to those obtained from age-matched controls (Table 2). As discussed above, activation or up-regulation of macrophage Mgat3 or TLR's results in many functional outcomes, including the enhancement of […] and removal of Aβ, increased apoptosis, secretion of inflammatory cytokines, and other anti-AD antimicrobial activities. […] Thus, the ratio of Mgat3 or TLR transcription upon Aβ stimulation of AD versus control PBMCs provides an indicator and sensitive method to test the in vitro efficacy of drug candidates. […]

[1] = tested on: macrophages of AD patients; assay: Phagocytosis of FITC-amyloid-beta (1-42) by macrophages of AD patients; type: cell-based, human; details: in vitro treatment during Aβ phagocytosis, fluorescence/confocal microscopy
Description: (§1) Peripheral blood mononuclear cells (PBMC's) and macrophages. AD patients were recruited at the time of enrollment in a double-blind study of curcumin Complex 3 in progress at UCLA. The diagnostic criteria for AD satisfied the National Institute of Neurological and Communicative Disorders and the AD and Related Disorders Association criteria for probable Alzheimer's disease. Normal age-matched control subjects were recruited. PBMC's were isolated by the Ficoll Hypaque gradient technique from venous blood. To prepare macrophage slide cultures, 50,000 PBMC's were cultured in each well of an 8-chamber polystyrene vessel glass slide in Iscove's medium with 10% autologous serum until differentiated into adherent macrophages (7-14 days).
Phagocytosis assay and confocal microscopy. Macrophages were exposed to FITC-amyloid-beta (1-42) (2 μg/ml) overnight, fixed with 4% paraformaldehyde, permeabilized with 0.1% Triton X-100, blocked with 1% BSA in PBS and stained with Rab 5 or EEA1 antibodies by indirect immunofluorescence; lysosomes were stained intravitally by the Lyso-Tracker probe; macrophages were stained using anti-CD68; neurons were stained using anti-NeuN. The preparations were examined using fluorescence and confocal microscopy.
Ability of monocytes to clear Aβ in the brain. Co-culture of freshly isolated monocytes with sections of AD frontal lobe to test the ability of monocytes to clear Aβ in the brain was done. One third of control monocytes became saturated with Aβ in 2 days and 100% in 4 days. […] Apoptosis of macrophages treated with Aβ was done with the SR-VAD-FMK polycaspase assay. Differentiated macrophages were treated with curcuminoids or analogs in the medium overnight and were then exposed to FITC-Aβ (1-42) to 2.5 μg/ml, incubated for 24 or 48 h and examined by fluorescence or confocal microscopy.
Curcuminoids reverse defective phagocytosis of amyloid-beta by macrophages of individual AD patients. […] Macrophages were visualized using anti-CD68 or fluorescent phalloidin with a fluorescence microscope.

control macrophages = assay: Phagocytosis / uptake of FITC-Aβ by control macrophages; type: cell-based, human; details: Example 5; control or AD macrophages not specified
Description: as §1
Phagocytosis assay and confocal microscopy. […] The preparations were examined using fluorescence and confocal microscopy. […]
Curcuminoids reverse defective phagocytosis of amyloid-beta by macrophages of individual AD patients. […] Macrophages were visualized using anti-CD68 or fluorescent phalloidin with a fluorescence microscope. […]

**Q.** With `CN(C)c1ccc(C=CC(=O)C=C(O)C=Cc2ccc(N(C)C)cc2)cc1` [Compound 5f, 1,7-Bis-(4-dimethylamino-phenyl)-5-hydroxy-hepta-1,4,6-trien-3-one] as the compound, how does the fold induction at 0.1 µM (Mgat3 transcription) read?
**A.** ≥ 2

**Q.** With `COc1ccc(C=CC(=O)C=C(O)C=Cc2ccc(OC)cc2O)c(O)c1` [Compound 5j, 5-Hydroxy-1,7-bis-(2-hydroxy-4-methoxy-phenyl)-hepta-1,4,6-trien-3-one] as the compound, how does the “Relative Activity: relative ratio of Mgat3 transcription in AD/Mgat3 transcription in control cells” value (“Relative Activity: relative ratio” below) (Mgat3 transcription) read?
**A.** −

**Q.** Which “effect on Aβ phagocytosis/uptake by AD macrophages” value [1] does the source give for “IGF-1: the hormone insulin-like growth factor (IGF-I)” here?
**A.** improves Aβ phagocytosis

**Q.** For `O=C(/C=C(O)/C=C/c1cccc(F)c1)/C=C/c1cccc(F)c1` [Compound 8], which “Relative Activity: relative ratio” value (Mgat3 transcription) is on record?
**A.** + ((+) indicates a ratio of 1.0-1.5)

**Q.** For `COc1cc(C=CC(=O)C=C(O)C=Cc2ccc(O)c(OC)c2)ccc1O` [Compound 5h, 5-Hydroxy-1,7-bis-(4-hydroxy-3-methoxy-phenyl)-hepta-1,4,6-trien-3-one], which fold induction at 0.1 µM (Mgat3 transcription) is on record?
**A.** 1 to 1.5

**Q.** Which fold induction at 0.1 µM (Mgat3 transcription) does the source give for `O=C(C=Cc1cccc(O)c1)C=C(O)C=Cc1cccc(O)c1` [Compound 5e, 5-Hydroxy-1,7-bis-(3-hydroxy-phenyl)-hepta-1,4,6-trien-3-one] here?
**A.** 1 to 1.5

**Q.** For `COc1ccc(C=CC(=O)C=C(O)C=Cc2ccc(OC)c(O)c2)cc1O` [Compound 5g, 5-Hydroxy-1,7-bis-(3-hydroxy-4-methoxy-phenyl)-hepta-1,4,6-trien-3-one], which melting point is on record?
**A.** 182.8 °C

**Q.** And the fold induction at 0.1 µM (Mgat3 transcription)?
**A.** 1 to 1.5

**Q.** For `CC(C)(C)c1ccc(/C=C/C(=O)/C=C(O)/C=C/c2ccc(C(C)(C)C)cc2)cc1` [Compound 10, (1E,4Z,6E)-1,7-bis(4-tert-butylphenyl)-5-hydroxyhepta-1,4,6-trien-3-one], which fold induction at 0.1 µM (Mgat3 transcription) is on record?
**A.** 1 to 1.5

**Q.** With `Cc1ccc(/C=C/C(=O)/C=C(O)/C=C/c2ccc(C)cc2)cc1` [Compound 7] as the compound, how does the “Relative Activity: relative ratio” value (Mgat3 transcription) read?
**A.** ++ ((++) indicates a ratio of 1.5-2.0)

**Q.** With `O=C(C=Cc1ccc(O)c(Cl)c1)C=C(O)C=Cc1ccc(O)c(Cl)c1` [Compound 5k, 1,7-Bis-(3-chloro-4-hydroxy-phenyl)-5-Hydroxy-hepta-1,4,6-trien-3-one] as the compound, how does the “Relative Activity: relative ratio” value (Mgat3 transcription) read?
**A.** −

**Q.** With `O=C(/C=C(O)/C=C/c1ccccc1)/C=C/c1ccccc1` [Compound 6, (1E,4Z,6E)-5-hydroxy-1,7-diphenylhepta-1,4,6-trien-3-one] as the compound, how does the fold induction at 0.1 µM (Mgat3 transcription) read?
**A.** 1 to 1.5

**Q.** With `CC(=O)Oc1ccc(C=CC(=O)C=C(O)C=Cc2ccc(OC(C)=O)cc2)cc1` [Compound 5c, Aceticacid 4-[7-(4-acetoxy-phenyl)-5-hydroxy-3-oxo-hepta-1,4,6-trienyl]-phenyl ester] as the compound, how does the “Relative Activity: relative ratio” value (Mgat3 transcription) read?
**A.** −

**Q.** For Fucoidan, which “block of uptake of Aβ” value (control macrophages) is on record?
**A.** did not block uptake of Aβ

**Q.** For `COc1cc(O)ccc1C=CC(=O)C=C(O)C=Cc1ccc(O)cc1OC` [Compound 5i, 5-Hydroxy-1,7-bis-(4-hydroxy-2-methoxy-phenyl)-hepta-1,4,6-trien-3-one], which fold induction at 0.1 µM (Mgat3 transcription) is on record?
**A.** 1.5 to 2

**Q.** For `CSc1ccc(/C=C/C(=O)/C=C(O)/C=C/c2ccc(SC)cc2)cc1` [Compound 9], which “Relative Activity: relative ratio” value (Mgat3 transcription) is on record?
**A.** ++++ ((+++ to ++++) indicates a ratio of 2.0 and above)

**Q.** For `CC(C)(C)C(=O)Oc1ccc(C=CC(=O)CC(=O)C=Cc2ccc(OC(=O)C(C)(C)C)cc2)cc1` [Compound 5d, 2,2-Dimethyl-propionic acid 4-{7-[4-(2,2-dimethyl-propionyloxy)-phenyl]-3,5-dioxo-hepta-1,6-dienyl}-phenyl ester], which “Relative Activity: relative ratio” value (Mgat3 transcription) is on record?
**A.** −

**Q.** For `COc1ccc(C=CC(=O)C=C(O)C=Cc2ccc(OC)cc2)cc1` [Compound 5b, 5-Hydroxy-1,7-bis-(4-methoxy-phenyl)-hepta-1,4,6-trien-3-one], which “Relative Activity: relative ratio” value (Mgat3 transcription) is on record?
**A.** −

**Q.** For `COc1ccccc1C=CC(=O)C=C(O)C=Cc1ccccc1OC` [Compound 5l, 5-Hydroxy-1,7-bis-(2-methoxy-phenyl)-hepta-1,4,6-trien-3-one], which fold induction at 0.1 µM (Mgat3 transcription) is on record?
**A.** ≥ 2
